# Source: ChEMBL document CHEMBL2417473, “The importance of hydrogen bonding and aromatic stacking to the affinity and efficacy of cannabinoid receptor CB2 antagonist, 5-(4-chloro-3-methylphenyl)-1-[(4-methylphenyl)methyl]-N-[(1S,2S,4R)-1,3,3-trimethylbicyclo[2.2.1]hept-2-yl]-1H-pyrazole-3-carboxamide (SR144528)” (J Med Chem, 2013)
# Molecular target: Cannabinoid receptor 2 (Homo sapiens, UniProt P34972)
# Test: Displacement of [3H]CP-55,940 from human CB2 receptor after 1 hr by competitive binding assay
# Cannabinoid receptor 2, sequence (P34972 whole entry): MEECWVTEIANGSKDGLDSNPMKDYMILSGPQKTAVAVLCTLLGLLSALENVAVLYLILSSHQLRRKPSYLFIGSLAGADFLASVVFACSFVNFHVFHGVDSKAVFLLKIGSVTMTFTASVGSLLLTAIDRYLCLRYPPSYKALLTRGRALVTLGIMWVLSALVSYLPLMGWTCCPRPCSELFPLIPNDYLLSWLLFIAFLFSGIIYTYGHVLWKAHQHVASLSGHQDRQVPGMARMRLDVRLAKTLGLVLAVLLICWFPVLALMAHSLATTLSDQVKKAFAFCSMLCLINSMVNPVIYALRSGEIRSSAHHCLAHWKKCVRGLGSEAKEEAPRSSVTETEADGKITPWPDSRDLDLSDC
row,Structure (SMILES),Ki [nM]
1,Cc1ccc(Cn2cc(/C=C/[C@@H]3C(C)(C)[C@@H]4CC[C@@]3(C)C4)cc2-c2ccc(Cl)c(C)c2)cc1,1220
2,Cc1ccc(Cn2nc(C(=O)N[C@@H]3C[C@@H]4CC[C@@]3(C)C4(C)C)cc2-c2ccc(Cl)c(C)c2)cc1,29.1
3,Cc1cc(-c2cc(C(=O)N[C@@H]3C(C)(C)[C@@H]4CC[C@@]3(C)C4)nn2-c2ccccc2)ccc1Cl,94.2
4,Cc1ccc(Cn2nc(/C=C/[C@@H]3C(C)(C)[C@@H]4CC[C@@]3(C)C4)cc2-c2ccc(Cl)c(C)c2)cc1 (relative stereo),527
5,Cc1ccc(Cn2cc(C(=O)N[C@@H]3C(C)(C)[C@@H]4CC[C@@]3(C)C4)cc2-c2ccc(Cl)c(C)c2)cc1 (relative stereo),15.3
